Laboratory results taken from PMC3997483, “Aminostyrylbenzofuran Directly Reduces Oligomeric Amyloid-β and Reverses Cognitive Deficits in Alzheimer Transgenic Mice” (PLoS ONE, 2014).
Marks after values point to notes of the source that are not given here.

Assays:
[1] = Plasma and brain pharmacokinetics (BBB penetration) after PO in rats; type: in vivo; settings: SD, rat, rats PO 2.5 mg/kg
Method: Pharmacokinetics profile of KMS88009 was obtained using ICR mice, SD rats, beagle dogs and cynomolgus monkeys. Animals were fasted overnight before KMS88009 administration. Mice were divided into 2 groups to receive KMS88009 as a single dose of 2.1 mg/kg intravenous (IV) bolus or 10 mg/kg orally (PO) by gavage. Additionally, KMS88009 was administered orally to estimate the BBB penetration in mice (10, 30 and 100 mg/kg). […] Dog received KMS88009 either as an IV bolus (1 mg/kg) via the great saphenous vein or by oral gavage (4 mg/kg). KMS88009 was administrated to monkeys as an IV bolus (1 mg/kg) via the femoral vein or by oral gavage (4 mg/kg). Vehicle for IV and PO administration was DMSO/tween-20/saline (3.3∶[…]∶79.6). All animals (n = 3 per group) were sacrificed and concentration of KMS88009 in plasma and brain were measured at 1/12, 1/4, 1/2, 1, 2, 4, 10 and 24 hr after IV administration and at 1/2, 1, 2, 4, 10 and 24 hr after PO administration. Brain samples were weighed and Daunce-homogenized in 10-fold volume of ice-chilled 4% bovine serum albumin (BSA) solution at room temperature. Plasma and brain homogenates were kept frozen at −70°C until analysis. The levels of KMS88009 were determined by the LC-MS/MS analysis. Pharmacokinetic parameters, time to the maximum concentration (Tmax), maximum concentration (Cmax), elimination half-life (T1/2), volume of distribution (Vd), clearance (Cl) and mean residual time (MRT), of KMS88009 were calculated based on plasma concentration-time data by a non-compartmental method using WinNonlin Version 5.2 (Pharsight, USA). Area under the curve from 0 to 24 hr (AUC0-24h) and area under the curve from 0 to infinity (AUCINF) were obtained by linear and log linear trapezoidal summations.

[2] = Single dose oral toxicity study; type: in vivo; settings: SD, rat, in vivo, po
Method: (§1) KMS88009 was orally administered by gavage at dose levels of 0 (vehicle), 1,000 and 2,000 mg/kg. Each group consisted of 3 rats. Vehicle was DMSO/tween-20/saline (3.3∶3.3∶93.4) mixture. Administration volume of vehicle and KMS88009 was 10 mL/kg. Mortality, physical abnormalities and signs of pain/distress were daily observed in all animals. Body weight of each animal was measured before the administration and on the 1st, 4th, 8th, 11th and 14th days.
(§2) All data for single and 2-week repeated oral dose toxicity studies were expressed as the mean ± SD Difference between control and treated groups were evaluated with one-way analysis of variance (ANOVA) followed by Dunnett's test. Value P<0.05 was taken as being statistically significant. Statistical analyses were performed using GraphPad Prism software (USA).

[3] = system: SD rats; assay: Single dose oral toxicity study; type: in vivo; settings: rats
Method: as §1, §2

[4] = system: APP/PS1 TG mice; assay: Y-maze, prophylactic trial; type: in vivo, mouse; settings: 5 to 12 months of age
[5] = system: APP/PS1 TG mice; assay: Contextual fear conditioning, prophylactic trial; type: in vivo, mouse; settings: vehicle TG 15.3%, WT 54.1%
[6] = system: Aβ oligomers; assay: Western blot (6E10) of hippocampus soluble fraction, prophylactic trial; type: in vivo, mouse; settings: soluble fraction of hippocampal homogenates, TG mice
[7] = system: APP/PS1 TG mice; assay: Contextual fear conditioning, therapeutic trial; type: in vivo, mouse; settings: PO 30 mg/kg/day, 3 months, TG 20.0%
Method: Behavioral tests were performed in the following sequence: Y-maze (day 1), Morris water maze (day 4 to 12) and contextual fear conditioning (day 26 to 27). To reduce stress, contextual fear conditioning was carried out 2 weeks after the Morris water maze task. In the therapeutic trial, APP/PS1 TG mice were treated with KMS88009 (30 mg/kg/day) for 3 months from 9 to 12 months of age. Y-maze tests short-term spatial working memory. Y-maze is a 3-armed (40 L×10 W×12 H cm) horizontal maze in which the arms are symmetrically disposed at 120° angles from each other. Mice were placed at the end of one arm and allowed to move freely through the maze during a 5-min session. Arm entry was considered completed when the hind paws of the mouse were completely placed in the arm. Alternation was defined as successive entries into the 3 arms on overlapping triplet sets. The series of arm entries was recorded via video recorders. […] During each trial session, the time taken to find the hidden platform (latency) was recorded using a video camera-based Ethovision System (Nodulus, Nertherlands). […] Swimming time was recorded during mice were in the pool quadrant where the platform had been previously located. […] Fear conditioning task was measured to test the ability to learn and remember an association between an aversive experience and environmental cues. […] Freezing response was measured without CS or US. […]

COc1ccc2cc(C=Cc3ccc(N(C)C)cc3)oc2c1 [KMS88009, 6-methoxy-2-(4-dimethylaminostyryl) benzofuran]
Cmax ([1]; brain): 1310 ng/g | Tmax ([1]; plasma, same data as Table 3): 1.7 h | AUC(0-t) ([1]; plasma, same data as Table 3, read-out: AUC0–24h): 908 ng·h/mL | LD50 at 14 days [2]: > 2000 mg/kg | Mortality (dead animals / total number of animals) ([3]; single PO 1,000 mg/kg): 0 / 3 ^a | Mortality (dead animals / total number of animals) ([3]; single PO 2,000 mg/kg): 0 / 3 | frequency of spontaneous alternation (Y-maze) ([4]; PO 10 mg/kg/day): 69.3% | frequency of spontaneous alternation (Y-maze) ([4]; PO 30 mg/kg/day): 68.5% | frequency of spontaneous alternation (Y-maze) ([4]; PO 100 mg/kg/day): 70.2% | freezing responses (contextual fear conditioning) ([5]; PO 10 mg/kg/day): 42.3% | freezing responses (contextual fear conditioning) ([5]; PO 30 mg/kg/day): 48.6% | freezing responses (contextual fear conditioning) ([5]; PO 100 mg/kg/day): 49.3% | Aβ oligomer species affected (western blot) [6]: prevented the accumulation of low-molecular-weight (3-mer) and high-molecular-weight (55 to 180 kDa) Aβ oligomeric species | freezing response (contextual fear conditioning) [7]: 48.3%
